Results on one compound are retold here after PMC9786103, “Potent and Selective Inhibition of CYP1A2 Enzyme by Obtusifolin and Its Chemopreventive Effects” (Pharmaceutics, 2022).

The target in this assay is T1, CYP2B6 (Homo sapiens, UniProt P20813).
T1 construct: Mixtures of pooled HLM, P450 substrates, and obtusifolin; tissue XenoTech XTreme 200; host or cells: pooled human liver microsomes
T1 sequence (P20813 1-491): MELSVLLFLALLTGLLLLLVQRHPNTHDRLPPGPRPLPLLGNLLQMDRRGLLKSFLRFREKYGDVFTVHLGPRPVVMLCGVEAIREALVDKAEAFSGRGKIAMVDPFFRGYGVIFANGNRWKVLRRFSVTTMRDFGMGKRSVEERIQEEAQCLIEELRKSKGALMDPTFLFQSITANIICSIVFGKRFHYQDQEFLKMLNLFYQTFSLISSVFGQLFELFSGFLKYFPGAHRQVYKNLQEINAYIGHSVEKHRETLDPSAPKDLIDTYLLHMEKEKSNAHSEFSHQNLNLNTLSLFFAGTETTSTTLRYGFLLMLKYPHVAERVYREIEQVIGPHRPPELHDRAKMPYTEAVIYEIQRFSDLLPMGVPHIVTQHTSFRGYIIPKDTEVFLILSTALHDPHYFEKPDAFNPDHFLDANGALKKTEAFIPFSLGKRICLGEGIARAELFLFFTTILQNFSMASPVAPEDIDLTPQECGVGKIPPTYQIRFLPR
The experiment in a line: Bupropion 6-hydroxylation in human liver microsomes. Conditions: HLMs. Format: biochemical.

Procedure: The following P450 isoform-specific substrates were used: coumarin (CYP2A6); bupropion (CYP2B6); amodiaquine (CYP2C8); tolbutamide (CYP2C9); omeprazole (CYP2C19); dextromethorphan (CYP2D6); chlorzoxazone (CYP2E1); and midazolam (CYP3A). […] NGS was introduced to start the reaction, which was followed by an additional incubation (15 min). Following reaction termination, aliquots of the supernatants were analyzed with LC-MS/MS.
Reverse phase column (Kinetex XB-C18, 100 × 2.10 mm; Phenomenex, Torrance, CA, USA) and triple-quadrupole mass spectrometer (LCMS 8060, Shimadzu, Kyoto, Japan) with an ultra high-performance LC system (Nexera X2, Shimadzu) analyze all the metabolites. […] For each metabolite, quantitation was carried out in selected reaction monitoring (SRM) mode using the following precursor-to-product ion transition: m/z 152 > 110 for acetaminophen (CYP1A2), m/z 214 > 186 for resorufin (CYP1A1 and CYP1A2), m/z 163 > 107 for 7-hydroxycoumarin (CYP2A6), m/z 256 > 238 for 6-hydroxybupropion (CYP2B6), m/z 328 > 283 for N-desethylamodiaquine (CYP2C8), m/z 287 > 89 for 5-hydroxytolbutamide (CYP2C9), m/z 362 > 214 for 4-hydroxyomeprazole (CYP2C9), m/z 258 > 157 for dextrorphan (CYP2D6), m/z 184 > 120 for 6-hydroxychlorzoxazone (CYP2E1), m/z 342 > 203 for 1′-hydroxymidazolam (CYP3A), and m/z 295 > 100 for trimipramine (IS) [23, 24].

`COc1c(O)c(C)cc2c1C(=O)c1c(O)cccc1C2=O` [Obtusifolin, obtusifolin] returned a 50% inhibitory concentration (IC50) of more than 50 µM.
